The source of these data is US20040235932A1, “Ophthalmic pharmaceutical compositions” (priority 2001, published 2004).

The structures appear in SMILES notation. Entries after “also recorded” stand apart in the source; their conditions may differ.

Experiment [1] relates to Dutch male colored rabbits. In words: Activity to reduce intraocular pressure on continuous eye drop administration in rabbits. The experiment is classed as in vivo, rabbit. The settings on record: for Difference in intraocular pressure after the administration: 0.03% eye drop, test eye vs control eye, mean±S.E. As for the experimental part: KRG-3332 as prepared in Reference Example 2 was dissolved in physiological saline to prepare a 0.01% solution, which was used as test solution 1 (0.01% eye drop) in the following method for determining the activity to reduce intraocular pressure. […] For the administration of eye drop, each 50 ρL of the test solution and the control (physiological saline) was administered to one eye and the other eye respectively, twice a day (11:00 and 19:00), and the administration continued for up to 57 days. The corneal surfaces of the animals were anaesthetized with 0.4% oxybuprocaine hydrochloride eye drop to, and the intraocular pressure was determined at time points of 11:00 (before the administration), 13:00(2 hours after the administration), 15:00 (4 hours after the administration) and 19:00 (8 hours after the administration, immediately before the second administration) one day before the administration and thereafter every week using an air applanation ophthalmotonometer (ALCON JAPAN LTD.). Average (mean±S.E.) of the difference between the intraocular pressures of eyes administered with the test solution and the control as determined at each time point, and the relevant t-test results were estimated. KRG-3332 was dissolved in physiological saline to prepare a 0.1% solution, which was used as test solution 2 (0.1% eye drop) in the determination of the activity to reduce intraocular pressure in a similar manner to above (1). For the comparison, bunazosin hydrochloride was dissolved in physiological saline to prepare a 0.03% solution, which was used as test solution 3 (reference drug, 0.03% eye drop of bunazosin hydrochloride) in the determination of the activity to reduce intraocular pressure in a similar manner to above (1) and (2).

The test system of experiment [2] is patients suffering from primary closed angle glaucoma and ocular hypertension. Particulars: 0.05% eye drop, continuous administration; cited from earlier work.
A further experiment has as its target T1, human variant α1 A-AR (Homo sapiens, UniProt P35348, A271T).
T1 sequence (P35348 1-466 A271T): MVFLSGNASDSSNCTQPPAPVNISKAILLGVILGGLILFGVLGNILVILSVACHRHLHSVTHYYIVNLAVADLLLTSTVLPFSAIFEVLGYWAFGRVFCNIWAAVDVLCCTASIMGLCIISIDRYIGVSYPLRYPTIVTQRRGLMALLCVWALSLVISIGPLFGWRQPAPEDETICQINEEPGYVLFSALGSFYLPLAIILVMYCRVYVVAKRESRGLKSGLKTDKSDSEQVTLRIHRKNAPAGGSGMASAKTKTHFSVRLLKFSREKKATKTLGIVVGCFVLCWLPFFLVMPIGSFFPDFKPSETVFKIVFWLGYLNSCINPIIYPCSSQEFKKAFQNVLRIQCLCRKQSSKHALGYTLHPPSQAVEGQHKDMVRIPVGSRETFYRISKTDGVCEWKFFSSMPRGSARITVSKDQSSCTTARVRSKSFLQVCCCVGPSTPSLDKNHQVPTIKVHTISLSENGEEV
The experiment can be described thus: Effects on expression level of α1 A-AR in CHO cells expressing variant α1 A-AR ([3H]-prazosin binding to membrane fractions). The settings on record: CHO cells expressing variant α1 A-AR cultured 48 hours with test drug 10^−8 M (mixture: each 10^−8 M).

Experimental for human variant α1 A-AR: The wild or variant α1 A-AR gene was incorporated into mammalian expression vector pCR3 (Invitrogen Inc.) using restriction enzyme EcoRI, and the vector was transfected into CHO cells with Lipofectamin (GIBCO Inc.).
The membrane fractions (about 20 μg protein/tube) were incubated in the presence of [^3 H]-prazosin (NEN Inc.) (30 to 200 μM) at 30° C. for 45 minutes, and then harvested on GF/C filter (Whatman Inc.) using a cell collecting apparatus (m-36T, Brandel Inc.). The filter was washed with 50 mM Tris-HCl buffer (pH7.4) several times, and then the radioactivity bound on the membrane was determined using a liquid scintillation counter. […] The experimental data was analyzed using nonlinear approximate program PRISM (trade mark) (Graphpad Software Inc.) to calculate the expression level of the receptor.

Take `CCCC(=O)N1CCCN(c2nc(N)c3cc(OC)c(OC)cc3n2)CC1.Cl` [bunazosin hydrochloride, 1-(4-amino-6,7-dimethoxy-2-quinazolinyl)-4-butyrylhexahydro-1H-1,4-diazepin hydrochloride, reference compound]: in experiment [1] (0.03% eye drop twice a day, up to 29th day, hydrochloride), the “development of drug resistance (change in activity to reduce intraocular pressure by continuous administration)” value is on record as “any difference from the eyes administered with the control was hardly observed on the 22nd day; also recorded: any reduction in intraocular pressure was hardly observed on the 22nd day”. In addition, the “Difference in intraocular pressure after the administration” value (“Difference in intraocular pressure” below) was 0.700 ± 0.320 mmHg in experiment [1] (1st day, 0 hours after the administration); −1.700 ± 1.452 mmHg in experiment [1] (1st day, 4 hours after the administration); 0.150 ± 0.947 mmHg in experiment [1] (1st day, 8 hours after the administration); 0.600 ± 0.579 mmHg in experiment [1] (8th day, 0 hours after the administration); −0.950 ± 1.176 mmHg in experiment [1] (8th day, 4 hours after the administration); −0.350 ± 0.430 mmHg in experiment [1] (8th day, 8 hours after the administration). In addition, the “Difference in intraocular pressure” value in experiment [1] (15th day, 0 hours after the administration) is on record as 0.100 ± 0.562 mmHg; in experiment [1] (15th day, 2 hours after the administration), −1.450 ± 0.804 mmHg; in experiment [1] (15th day, 4 hours after the administration), −0.250 ± 0.494 mmHg; in experiment [1] (15th day, 8 hours after the administration), −0.100 ± 0.150 mmHg; in experiment [1] (22nd day, 0 hours after the administration), −0.050 ± 0.567 mmHg; in experiment [1] (22nd day, 2 hours after the administration), −0.250 ± 0.576 mmHg. Moreover, the “Difference in intraocular pressure” value in experiment [1] (22nd day, 4 hours after the administration) is listed as −0.200 ± 0.330 mmHg; in experiment [1] (22nd day, 8 hours after the administration) it was 0.350 ± 0.150 mmHg; in experiment [1] (29th day, 0 hours after the administration), 0.300 ± 1.011 mmHg; in experiment [1] (29th day, 2 hours after the administration), −0.250 ± 0.652 mmHg; in experiment [1] (29th day, 4 hours after the administration), −0.500 ± 0.306 mmHg; in experiment [1] (29th day, 8 hours after the administration) it was −0.200 ± 0.289 mmHg. For the same compound, the “attenuation in activity to reduce intraocular pressure” value in experiment [2] was “initiate the attenuation in an activity to reduce intraocular pressure after 4-weeks continuous administration”. In addition, at human variant α1 A-AR, the “expression level of the α1 A-AR (receptor levels)” value is “induced the increase in the receptor levels about three times compared to the treatment with KRG-3333”.
